Results published in patent US8354402B2, “Polyarylcarboxamides useful as lipid lowering agents” (Janssen Pharmaceutica N.V., priority 2000, dated 2013).

Test system: ApoB secretion, HepG2 cells
Assay: Quantification of the secretion of ApoB (HepG2 cells, immunoprecipitation, scintillation counting)
Assay type: cell-based
Details: 24 hours of incubation; for IC50: Homo sapiens, HepG2, 24 h
Procedure: C.1. Quantification of the Secretion of ApoB
HepG2 cells were cultured in 24-well plates in Minimal Essential Medium Rega 3 containing 10% fetal calf serum. Rega 3 has the following composition: CaCl2 (264 μg/ml), KCl (400 μg/ml), MgSO4.7H2O (200 μg/ml), NaCl (6800 μg/ml), NaHCO3 (850 μg/ml), NaH2PO4.H2O (158 μg/ml), D-glucose (1000 μg/ml), phenol red (10 μg/ml), L-alanine (8.9 μg/ml), L-arginine HCl (12 μg/ml), L-asparagine.H2O (15 μg/ml), L-aspartic acid (13.3 μg/ml), L-cystine (24 μg/ml), L-glutamic acid (14.7 μg/ml), glycine (7.5 μg/ml), L-histidine.HCl .H2O (42 μg/ml), L-isoleucine (52 μg/ml), L-leucine (52 μg/ml), L-lysine.HCl (72.5 μg/ml), L-methionine (15 μg/ml), L-phenylalanine (32 μg/ml), L-proline (11.5 μg/ml), L-serine (10.5 μg/ml), L-threonine (48 μg/ml), L-tryptophan (10 μg/ml), L-tyrosine (36 μg/ml), L-valine (46 μg/ml), D-Ca pantothenate (1 μg/ml), choline chloride (1 μg/ml), folic acid (1 μg/ml), 1-enositol (2 μg/ml), nicotinamide (1 μg/ml), pyridoxal HCl (1 μg/ml), riboflavin (0.1 μg/ml) and thiamine HCl (1 μg/ml).
At 70% confluency, the medium was changed and the test compound or carrier (dimethylsulfoxide, 0.4% final concentration) was added. After 24 hours of incubation, the medium was transferred to Eppendorf tubes and cleared by centrifugation. A sheep antibody directed against either apo B was added to the supernatant and the mixture was kept at 8° C. for 24 hours. Then, rabbit anti-sheep antibody was added and the immune complex was allowed to precipitate for 24 hours at 8° C. The immunoprecipitate was pelleted by centrifugation for 25 minutes at 1320 g and washed twice with a buffer containing 40 mM 4-morpholinepropanesulfonic acid, 40 mM NaH2PO4, 100 mM NaF, 0.2 mM dithiothreitol, 5 mM ethylenediamine tetraacetic acid, 5 mM ethylenebis (oxyethylenenitrilo) tetraacetic acid, 1% Triton-X-100, 0.5% sodium deoxycholate, 0.1% sodium dodecylsulphate, 0.2 μM leupeptin and 0.2 μM phenylmethylsulphonylfluoride. Radioactivity in the pellet was quantified by liquid scintillation counting.
Resulting IC50 values are enumerated in Table C.1 for a number of compounds No. 1 to No. 123.

| SMILES | IC50 | pIC50 (listed as 240) |
| --- | --- | --- |
| CCCNC(=O)C(c1ccccc1)C1CCN(c2ccc(NC(=O)c3ccccc3-c3cccc4ccccc34)cc2)CC1 (stereo not drawn) [Co. No. 42] | ≥ 3 µM |  |
| CCNC(=O)C(c1ccccc1)C1CCN(c2ccc(NC(=O)c3ccccc3-c3cccc4ccccc34)cc2)CC1 (stereo not drawn) [Co. No. 134] | 0.0653 µM |  |
| COc1ccc(-c2ccccc2C(=O)Nc2ccc(N3CCC(C(C(=O)Nc4ccccc4)c4ccccc4)CC3)cc2)cc1 (stereo not drawn) [Co. No. 116] | 0.385 µM |  |
| CCNC(=O)C(c1ccccc1)N1CCN(c2ccc(NC(=O)c3ccccc3-c3ccc(C(F)(F)F)cc3)cc2C(F)(F)F)CC1 (stereo not drawn) [Co. No. 217] | 2.69 µM |  |
| O=C(Nc1ccc(C2CCN(C(C(=O)OCc3ccccc3)c3ccccc3)CC2)cc1)c1ccccc1-c1ccc(C(F)(F)F)cc1 (stereo not drawn) [Co. No. 151] | 0.612 µM |  |
| CCCNC(=O)C(c1ccccc1)C1CCN(c2ccc(NC(=O)c3ccccc3-c3ccccc3)cc2)CC1 (stereo not drawn) [Co. No. 13] | ≤ 0.03 µM |  |
| CCNC(=O)C(c1ccccc1)C1CCN(c2ccc(NC(=O)c3ccccc3-c3cccc(N)c3)cc2)CC1 (stereo not drawn) [Co. No. 89] | 0.363 µM |  |
| CCCNC(=O)C(c1ccccc1)N1CCCN(c2ccc(NC(=O)c3ccccc3-c3ccc(C(F)(F)F)cc3)cc2)CC1 (stereo not drawn) [Co. No. 123] | 0.241 µM |  |
| COC(=O)C(c1ccccc1)N1CCN(c2ccc(NC(=O)c3ccccc3-c3ccc(C(F)(F)F)cc3)cc2C(F)(F)F)CC1 (stereo not drawn) [Co. No. 210] | 0.483 µM |  |
| COC(=O)C(c1ccccc1)N1CCN(c2ccc(NC(=O)c3ccc(C)cc3-c3ccc(C(F)(F)F)cc3)cc2)CC1 (stereo not drawn) [Co. No. 184] | 0.00313 µM |  |
| O=C(Nc1ccc(C2=CCN(C(C(=O)OCc3ccccc3)c3ccccc3)CC2)cc1)c1ccccc1-c1ccc(C(F)(F)F)cc1 (stereo not drawn) [Co. No. 168] | 0.132 µM |  |
| O=C(Nc1ccc(N2CCC(C(C(=O)Nc3ccccc3)c3ccccc3)CC2)cc1)c1ccccc1-c1ccc2ccccc2c1 (stereo not drawn) [Co. No. 138] | 0.0993 µM |  |
| CCNC(=O)C(c1ccccc1)C1CCN(c2ccc(NC(=O)c3ccccc3-c3ccc(OC)cc3)cc2)CC1 (stereo not drawn) [Co. No. 93] | 0.0723 µM |  |
| COC(=O)C(c1ccccc1)N1CCN(c2ccc(NC(=O)c3cc(C)ccc3-c3ccc(C(F)(F)F)cc3)cc2)CC1 (stereo not drawn) [Co. No. 189] | 0.105 µM |  |
| COC(=O)C(c1ccccc1)N1CCN(c2ccc(NC(=O)c3ccccc3-c3ccc(C(F)(F)F)cc3)cc2)CC1 (stereo not drawn) [Co. No. 240] |  | 7.982 |
| CCNC(=O)C(c1ccccc1)N1CCN(c2ccc(NC(=O)c3ccc(Cl)cc3-c3ccc(C(F)(F)F)cc3)cc2)CC1 (stereo not drawn) [Co. No. 201] | < 0.03 µM |  |
| CCC(CC)OC(=O)C(c1ccccc1)N1CCC(c2ccc(NC(=O)c3ccccc3-c3ccc(C(F)(F)F)cc3)cc2)CC1 (stereo not drawn) [Co. No. 224] | 0.557 µM |  |
| O=C(Nc1ccc(N2CCN(CC(C(=O)NCC(F)(F)F)c3ccccc3)CC2)cc1)c1ccccc1-c1ccc(C(F)(F)F)cc1 (stereo not drawn) [Co. No. 66] | 0.0796 µM |  |
| CC(C)NC(=O)C(c1ccccc1)C1CCN(c2ccc(NC(=O)c3cccc4c3Cc3ccccc3-4)cc2)CC1 (stereo not drawn) [Co. No. 23] | ≥ 3 µM |  |
| CC(C)NC(=O)C(c1ccccc1)C1CCN(c2ccc(NC(=O)c3cccc4c3-c3ccccc3C4)cc2)CC1 (stereo not drawn) [Co. No. 21] | 0.245 µM |  |
| O=C(Nc1ccc(N2CCC(C(C(=O)Nc3ccccc3)c3ccccc3)CC2)cc1)c1ccccc1-c1cccc(Cl)c1 (stereo not drawn) [Co. No. 108] | 0.188 µM |  |
| CCNC(=O)C(c1ccccc1)N1CCCN(c2ccc(NC(=O)c3ccccc3-c3ccc(C(F)(F)F)cc3)cc2)CC1 (stereo not drawn) [Co. No. 122] | 0.414 µM |  |
| COC(=O)C(c1ccccc1)N1CCN(c2ccc(NC(=O)c3ccccc3-c3ccc(Cl)cc3)cc2)CC1 (stereo not drawn) [Co. No. 159] | 0.106 µM |  |
| CCNC(=O)C(c1ccccc1)N1CCN(c2ccc(NC(=O)c3ccccc3-c3ccccc3)cc2)CC1 (stereo not drawn) [Co. No. 139] | 0.0861 µM |  |
| COC(=O)C(c1ccccc1)N1CCN(c2ccc(NC(=O)c3ccc(Cl)cc3-c3ccc(C(F)(F)F)cc3)cc2)CC1 (stereo not drawn) [Co. No. 192] | 0.158 µM |  |
| O=C(Nc1ccc(N2CCC(C(C(=O)Nc3ccccc3)c3ccccc3)CC2)cc1)c1ccccc1-c1cccc(C(F)(F)F)c1 (stereo not drawn) [Co. No. 118] | 0.127 µM |  |
| CCNC(=O)C(c1ccccc1)N1CCN(c2ccc(NC(=O)c3cc(OC)c(OC)cc3-c3ccc(C(F)(F)F)cc3)cc2)CC1 (stereo not drawn) [Co. No. 202] | 0.184 µM |  |

| SMILES | IC50 | pIC50 (listed as 240) |
| --- | --- | --- |
| O=C(Nc1ccc(N2CCC(C(C(=O)Nc3ccccc3)c3ccccc3)CC2)cc1)c1ccccc1OCc1ccccc1 (stereo not drawn) [Co. No. 33] | ≥ 3 µM |  |
| COC(=O)C(c1ccccc1)C1CCN(c2ccc(NC(=O)c3ccccc3-c3ccc(CC(C)C)cc3)cc2)CC1 (stereo not drawn) [Co. No. 233] | < 0.03 µM |  |
| O=C(Nc1ccc(N2CCN(C(C(=O)OCc3ccccc3)c3ccccc3)CC2)cc1)c1ccccc1-c1ccc(C(F)(F)F)cc1 (stereo not drawn) [Co. No. 142] | 0.114 µM |  |
| CC(C)OC(=O)C(c1ccccc1)N1CCC(c2ccc(NC(=O)c3ccccc3-c3ccc(C(F)(F)F)cc3)cc2)CC1 (stereo not drawn) [Co. No. 223] | 0.37 µM |  |
| COC(=O)C(c1ccccc1)C1CCN(c2ccc(NC(=O)c3cccc(C)c3-c3ccc(CC(C)C)cc3)cc2)CC1 (stereo not drawn) [Co. No. 236] | 0.0217 µM |  |
| CCNC(=O)C(c1ccccc1)C1CCN(c2ccc(NC(=O)c3ccccc3-c3ccc(Cl)c(Cl)c3)cc2)CC1 (stereo not drawn) [Co. No. 88] | ≤ 0.03 µM |  |
| O=C(Nc1ccc(N2CCC(C(C(=O)Nc3ccccc3)c3ccccc3)CC2)cc1)c1cccc2c1-c1ccccc1C2 (stereo not drawn) [Co. No. 129] | 2.77 µM |  |
| CC(C)(C)c1ccc(-c2ccccc2C(=O)Nc2ccc(N3CCC(C(C(=O)NCc4ccccc4)c4ccc(F)cc4)CC3)cc2)cc1 (stereo not drawn) [Co. No. 255] | 0.00504 µM |  |
| O=C(Nc1ccc(N2CCN(C(C(=O)Oc3ccccc3)c3ccccc3)CC2)cc1)c1ccccc1-c1ccccc1 (stereo not drawn) [Co. No. 150] | 0.173 µM |  |
| CCNC(=O)C(c1ccccc1)N1CCN(c2ccc(NC(=O)c3ccccc3-c3ccc(C(F)(F)F)cc3)c(F)c2)CC1 (stereo not drawn) [Co. No. 219] | 0.0785 µM |  |
| CCOC(=O)C(c1ccccc1)C1CCN(c2ccc(NC(=O)c3ccccc3-c3ccc(C(F)(F)F)cc3)cc2)CC1 (stereo not drawn) [Co. No. 243] | < 0.03 µM |  |
| O=C(Nc1ccc(N2CCC(C(C(=O)Nc3ccccc3)c3ccccc3)CC2)cc1)c1cccc2c1Cc1ccccc1-2 (stereo not drawn) [Co. No. 29] | ≥ 3 µM |  |
| COC(=O)C(c1ccccc1)N1CCN(c2ccc(NC(=O)c3ccccc3-c3ccc(C(F)(F)F)cc3)c(Cl)c2)CC1 (stereo not drawn) [Co. No. 207] | < 0.03 µM |  |
| CCCNC(=O)C(c1ccccc1)C1CCN(c2ccc(NC(=O)c3ccccc3-c3ccc(Cl)cc3)cc2)CC1 (stereo not drawn) [Co. No. 68] | ≤ 0.03 µM |  |
| O=C(Nc1ccc(N2CCC(C(C(=O)NCc3ccccc3)c3ccccc3)CC2)cc1)c1ccccc1Oc1ccccc1 (stereo not drawn) [Co. No. 9] | 0.221 µM |  |
| COC(=O)C(c1ccccc1)N1CCN(c2ccc(NC(=O)c3cc(Cl)ccc3-c3ccc(C(F)(F)F)cc3)cc2)CC1 (stereo not drawn) [Co. No. 191] | 0.00719 µM |  |
| CCc1ccc(-c2c(C)cccc2C(=O)Nc2ccc(N3CCC(C(C(=O)OC)c4ccccc4)CC3)cc2)cc1 (stereo not drawn) [Co. No. 234] | < 0.03 µM |  |
| CCCNC(=O)C(CN1CCN(c2ccc(NC(=O)c3ccccc3-c3ccc(C(F)(F)F)cc3)cc2)CC1)c1ccccc1 (stereo not drawn) [Co. No. 63, N-[4-[4-[3-oxo-2-phenyl-3-(propylamino)propyl]-1-piperazinyl]phenyl]-4′-(trifluoromethyl)-[1,1′-biphenyl]-2-carboxamide] | 0.122 µM |  |
| CCOC(=O)C(c1ccc(Cl)cc1)N1CCN(c2ccc(NC(=O)c3ccccc3-c3ccc(C(F)(F)F)cc3)cc2)CC1 (stereo not drawn) [Co. No. 262] | 0.558 µM |  |
| CCCNC(=O)C(c1ccccc1)C1CCN(c2ccc(NC(=O)c3ccccc3COc3ccccc3)cc2)CC1 (stereo not drawn) [Co. No. 17] | 0.199 µM |  |
| O=C(Nc1ccc(N2CCC(C(C(=O)Nc3ccccc3)c3ccccc3)CC2)cc1)c1ccccc1-c1ccc(C(F)(F)F)cc1 (stereo not drawn) [Co. No. 36] | ≤ 0.03 µM |  |
| CCCNC(=O)C(c1ccccc1)N1CCC(c2ccc(NC(=O)c3ccccc3-c3ccc(C(F)(F)F)cc3)cc2)CC1 (stereo not drawn) [Co. No. 70] | ≤ 0.03 µM |  |
| CCCNC(=O)C(c1ccccc1)C1CCN(c2ccc(NC(=O)c3ccccc3-c3ccccc3Cl)cc2)CC1 (stereo not drawn) [Co. No. 45] | ≥ 3 µM |  |
| O=C(Nc1ccc(N2CCC(C(C(=O)NCc3ccccc3)c3ccccc3)CC2)cc1)c1ccccc1-c1ccc(F)cc1 (stereo not drawn) [Co. No. 102] | 0.0185 µM |  |
| CCNC(=O)C(c1ccccc1)N1CCN(c2ccc(NC(=O)c3ccccc3-c3ccc(C(F)(F)F)cc3)cc2C)CC1 (stereo not drawn) [Co. No. 218] | < 0.03 µM |  |
| COC(=O)C(c1ccccc1)N1CC=C(c2ccc(NC(=O)c3ccccc3-c3ccccc3)cc2)CC1 (stereo not drawn) [Co. No. 156] | 0.122 µM |  |
| CC(C)=CCOC(=O)C(c1ccccc1)C1CCN(c2ccc(NC(=O)c3ccccc3-c3ccc(C(F)(F)F)cc3)cc2)CC1 (stereo not drawn) [Co. No. 245] | 0.525 µM |  |
